Source: US7049332B2, “HIV inhibiting N-aminoimidazole derivatives” (K. U. Leuven Research & Development, priority 2001, dated 2006)
≈ marks a conversion by molar mass, not a printed value.

Tests used:
[1] = test system: HIV-1 (NL4.3 WT); test: Inhibition of HIV-induced cytopathogenic effect in MT-4 cells (MTT), HIV-1; format: cell-based; conditions: for IC50: Human immunodeficiency virus 1, MT4; for IC50 / HIV-1 (NL4.3 WT) IC50: 50% protection against HIV-induced cytopathogenic effect, MT-4 cells, MTT; for HIV-1 (NL4.3 WT) SI: selectivity index = ratio of CC50 to IC50, HIV-1
Description: (§1) A rapid and automated assay procedure was used for the in vitro evaluation of anti-HIV agents. An HTLV-1 transformed T4-cell line MT-4, which was previously shown to be highly susceptible to and permissive for HIV infection, served as the target cell line. Inhibition of the HIV-induced cytopathogenic effect was used as the end point. The viabitlity of both HIV-and mock-infected cells was assessed spectrophotometrically via in situ reduction of 3-(4,5-dimethylthiazol-2-yl)-2,5-diphenyltetrazolium bromide (MTT). The 50% cytotoxic concentration (CC50 in μg/ml) was defined as the concentration of compound that reduced the absorbance of the mock-infected control sample by 50%. The percent protection achieved by the compound in HIV-infected cells was calculated by the following formula:
(§2) [formula] whereby (ODT)HIV is the optical density measured with a given concentration of the test compound in HIV-infected cells; (ODC)HIV is the optical density measured for the control untreated HIV-infected cells; (ODC)MOCK is the optical density measured for the control untreated mock-infected cells; all optical density values were determined at 540 nm. The dose achieving 50% protection according to the above formula was defmed as the 50% inhibitory concentration (IC50 in μg/ml). The ratio of CC50 to IC50 was defined as the selectivity index (SI).
(§3) Cells: MT-4 cells (Miyoshi et al., 1982) were grown and maintained in RPMI 1640 medium supplemented with 10% heat-inactivated fetal calf serum, 2 mM 1-glutamine, 0.1% sodium bicarbonate, and 20 œg of gentamicin per ml.
(§4) Viruses: The HIV-1(NL4.3) strain (Adachi et al., 1986) is a molecular clone obtained from the National Institutes of Health (Bethesda, Md.). The HIV-2(ROD) (Barr,-Sinoussi et al., 1983) stock was obtained from culture supernatant of HIV-2 infected cell lines.

[2] = test system: HIV-2 (ROD); test: Inhibition of HIV-induced cytopathogenic effect in MT-4 cells (MTT), HIV-2; format: cell-based; conditions: for IC50: Human immunodeficiency virus 2, MT4; for IC50 / HIV-2 (ROD) IC50: 50% protection against HIV-induced cytopathogenic effect, MT-4 cells, MTT; for HIV-2 (ROD) SI: selectivity index = ratio of CC50 to IC50, HIV-2
Description: as §1, §2, §3, §4

[3] = Cytotoxicity in mock-infected MT-4 cells (MTT); format: cell-based; conditions: human; mock-infected MT-4 cells, absorbance reduced by 50%, MTT
Description: as §1, with “formula: Examples of inhibition of cell proliferation by particular compounds of formula (I) can be found by looking at the respective CC50 values in the MT-4 cell line. Cells: MT-4 cells (Miyoshi et al., 1982) were grown and maintained in RPMI 1640 medium supplemented with 10% heat-inactivated fetal calf serum, 2 mM […], 0.1% sodium bicarbonate, and 20 œg of gentamicin per ml.” for “formula:”

[4] = test system: MT-4 cells; test: Cytotoxicity in mock-infected MT-4 cells (MTT); format: cell-based
Description: as §1, with “formula: Examples of inhibition of cell proliferation by particular compounds of formula (I) can be found by looking at the respective CC50 values in the MT-4 cell line. Cells: MT-4 cells (Miyoshi et al., 1982) were grown and maintained in RPMI 1640 medium supplemented with 10% heat-inactivated fetal calf serum, 2 mM […], 0.1% sodium bicarbonate, and 20 œg of gentamicin per ml.” for “formula:”

Q: With `Cc1ccc(Nn2c(-c3ccccc3)c(C)[nH]c2=S)cc1C` [Compound 9.13, 2,3-Dihydro-1-(3,4-dimethylphenylamino)-4-methyl-5-phenyl-1H-imidazole-2-thione] as the molecule, how does the IC50 [1] read?
A: 1.1 µg/mL (≈ 3.55 µM)

Q: What about the “HIV-1 (NL4.3 WT) SI” value [1] of the same molecule?
A: 16.3

Q: What about the IC50 [2] of the same molecule?
A: > 17.9 µg/mL

Q: What about the “HIV-2 (ROD) SI” value [2] of the same molecule?
A: <1

Q: And the CC50 [3]?
A: 17.9 µg/mL (≈ 57.8 µM)

Q: What about the melting point of the same molecule?
A: 228 °C

Q: With `Cc1[nH]c(=S)n(Nc2cccc(Br)c2)c1-c1ccccc1` [Compound 9.14, 1-(3-Bromophenylamino)-2,3-dihydro-4-methyl-5-phenyl-1H-imidazole-2-thione] as the molecule, how does the IC50 [1] read?
A: 1.6 µg/mL (≈ 4.44 µM)

Q: And the “HIV-1 (NL4.3 WT) SI” value [1]?
A: 10.5

Q: And the IC50 [2]?
A: > 17.1 µg/mL

Q: And the “HIV-2 (ROD) SI” value [2]?
A: <1

Q: And the CC50 [3]?
A: 17.1 µg/mL (≈ 47.5 µM)

Q: What about the melting point of the same molecule?
A: 190 °C

Q: Which results are given for `Cc1ccc(Nn2c(-c3ccccc3)c(C)[nH]c2=S)cc1Cl` [Compound 9.15, 1-(3-Chloro-4-methylphenylamino)-2,3-dihydro-4-methyl-5-phenyl-1H-imidazole-2-thione]?
A: IC50 [1]: 3.6 µg/mL (≈ 10.9 µM); HIV-1 (NL4.3 WT) SI [1]: 4.7; IC50 [2]: > 16.9 µg/mL; HIV-2 (ROD) SI [2]: <1; CC50 [3]: 16.9 µg/mL (≈ 51.2 µM); melting point: 190 °C

Q: For `Cc1[nH]c(=S)n(Nc2cccc([N+](=O)[O-])c2)c1-c1ccccc1` [Compound 9.17, 2,3-Dihydro-4-methyl-1-(3-nitrophenylamino)-5-phenyl-1H-imidazole-2-thione], which IC50 [1] is on record?
A: 3.7 µg/mL (≈ 11.3 µM)

Q: What about the “HIV-1 (NL4.3 WT) SI” value [1] of the same molecule?
A: 4.2

Q: And the IC50 [2]?
A: > 15.4 µg/mL

Q: What about the “HIV-2 (ROD) SI” value [2] of the same molecule?
A: <1

Q: What about the CC50 [3] of the same molecule?
A: 15.4 µg/mL (≈ 47.2 µM)

Q: What about the melting point of the same molecule?
A: 214 °C

Q: With `Cc1[nH]c(=S)n(Nc2cccc(F)c2)c1-c1ccccc1` [Compound 9.18, 2,3-Dihydro-1-(3-fluorophenylamino)-4-methyl-5-phenyl-1H-imidazole-2-thione] as the molecule, how does the IC50 [1] read?
A: 5.5 µg/mL (≈ 18.4 µM)

Q: And the “HIV-1 (NL4.3 WT) SI” value [1]?
A: 8.6

Q: What about the IC50 [2] of the same molecule?
A: > 47.3 µg/mL

Q: And the “HIV-2 (ROD) SI” value [2]?
A: <1

Q: And the CC50 [3]?
A: 47.3 µg/mL (≈ 158 µM)

Q: What about the melting point of the same molecule?
A: 226 °C

Q: Which IC50 [1] does the source give for `Cc1cccc(Nn2c(-c3ccccc3)c(C)[nH]c2=S)c1` [Compound 9.19, 2,3-Dihydro-4-methyl-1-(3-methylphenylamino)-5-phenyl-1H-imidazole-2-thione] here?
A: 0.6 µg/mL (≈ 2.03 µM)

Q: And the “HIV-1 (NL4.3 WT) SI” value [1]?
A: 32.3

Q: And the IC50 [2]?
A: > 20.7 µg/mL

Q: What about the “HIV-2 (ROD) SI” value [2] of the same molecule?
A: <1

Q: And the CC50 [3]?
A: 20.7 µg/mL (≈ 70.1 µM)

Q: What about the melting point of the same molecule?
A: 206 °C

Q: Which results are given for `CCc1[nH]c(=S)n(Nc2cccc(C)c2)c1-c1ccccc1` [Compound 9.25, 2,3-Dihydro-4-ethyl-1-(3-methylphenylamino)-5-phenyl-1H-imidazole-2-thione]?
A: IC50 [1]: 3.9 µg/mL (≈ 12.6 µM); HIV-1 (NL4.3 WT) SI [1]: 5.0; IC50 [2]: > 19.8 µg/mL; HIV-2 (ROD) SI [2]: <1; CC50 [3]: 19.8 µg/mL (≈ 64 µM); melting point: 202 to 204 °C

Q: Which IC50 [1] does the source give for `Cc1cc(C)cc(Nn2c(-c3ccccc3)c(C)[nH]c2=S)c1` [Compound 9.30, 2,3-Dihydro-1-(3,5-dimethylphenylamino)-4-methyl-5-phenyl-1H-imidazole-2-thione] here?
A: 0.3 µg/mL (≈ 0.969 µM)

Q: And the “HIV-1 (NL4.3 WT) SI” value [1]?
A: 241.9

Q: What about the IC50 [2] of the same molecule?
A: > 65.3 µg/mL

Q: What about the “HIV-2 (ROD) SI” value [2] of the same molecule?
A: <1

Q: What about the CC50 [3] of the same molecule?
A: 65.3 µg/mL (≈ 211 µM)

Q: And the melting point?
A: 240 to 242 °C

Q: With `COc1cccc(Nn2c(-c3ccccc3)c(C)[nH]c2=S)c1` [Compound 9.31] as the molecule, how does the “HIV-1 (NL4.3 WT) IC50” value [1] read?
A: 3.1 µg/mL

Q: What about the “HIV-1 (NL4.3 WT) SI” value [1] of the same molecule?
A: 4.0

Q: And the “HIV-2 (ROD) IC50” value [2]?
A: >12.3 µg/mL

Q: What about the “HIV-2 (ROD) SI” value [2] of the same molecule?
A: <1

Q: What about the “cytotoxicity CC50” value [4] of the same molecule?
A: 12.3 µg/mL

Q: With `Cc1[nH]c(=S)n(Nc2cccc(Cl)c2)c1-c1cccc(C#N)c1` [Compound 9.32, 1-(3-Chlorphenylamino)-5-(3-cyanophenyl)-2,3-dihydro-4-methyl-1H-imidazole-2-thione] as the molecule, how does the “HIV-1 (NL4.3 WT) IC50” value [1] read?
A: 13.8 µg/mL

Q: What about the “HIV-1 (NL4.3 WT) SI” value [1] of the same molecule?
A: 2.3

Q: What about the “HIV-2 (ROD) IC50” value [2] of the same molecule?
A: >32.1 µg/mL

Q: What about the “HIV-2 (ROD) SI” value [2] of the same molecule?
A: <1

Q: And the “cytotoxicity CC50” value [4]?
A: 32.1 µg/mL

Q: Which results are given for `Cc1ncn(Nc2cccc(Cl)c2)c1-c1ccccc1` [Compound 13.01, 1-(3-Chlorophenylamino)-4-methyl-5-phenyl-1H-imidazole]?
A: IC50 [1]: 0.5 µg/mL (≈ 1.76 µM); HIV-1 (NL4.3 WT) SI [1]: 6.0; IC50 [2]: 0.5 µg/mL (≈ 1.76 µM); HIV-2 (ROD) SI [2]: 6.9; CC50 [3]: 3.25 µg/mL (≈ 11.5 µM); melting point: 218 °C

Q: For `Cc1ncn(Nc2cccc(Cl)c2)c1-c1cccc(Br)c1` [Compound 13.02, 5-(3-Bromophenyl)-1-(3-chlorophenylamino)-4-methyl-1H-imidazole], which IC50 [1] is on record?
A: 0.5 µg/mL (≈ 1.38 µM)

Q: And the “HIV-1 (NL4.3 WT) SI” value [1]?
A: 6.7

Q: And the IC50 [2]?
A: 0.3 µg/mL (≈ 0.827 µM)

Q: And the “HIV-2 (ROD) SI” value [2]?
A: 9.5

Q: And the CC50 [3]?
A: 3.13 µg/mL (≈ 8.63 µM)

Q: What about the melting point of the same molecule?
A: 164 °C

Q: For `Cc1ncn(Nc2cccc(Cl)c2)c1-c1cccc(Cl)c1` [Compound 13.03, 5-(3-Chlorophenyl)-1-(3-chlorophenylamino)-4-methyl-1H-imidazole], which IC50 [1] is on record?
A: 0.2 µg/mL (≈ 0.629 µM)

Q: And the “HIV-1 (NL4.3 WT) SI” value [1]?
A: 73.5

Q: And the IC50 [2]?
A: 0.23 µg/mL (≈ 0.723 µM)

Q: What about the “HIV-2 (ROD) SI” value [2] of the same molecule?
A: 63.8

Q: What about the CC50 [3] of the same molecule?
A: 14.7 µg/mL (≈ 46.2 µM)

Q: What about the melting point of the same molecule?
A: 168 °C

Q: Which IC50 [1] does the source give for `Cc1cccc(Nn2cnc(C)c2-c2ccccc2)c1` [Compound 13.09, 4-Methyl-1-(3-methylphenylamino)-5-phenyl-1H-imidazole] here?
A: 1.4 µg/mL (≈ 5.32 µM)

Q: What about the “HIV-1 (NL4.3 WT) SI” value [1] of the same molecule?
A: 5.6

Q: What about the IC50 [2] of the same molecule?
A: > 7.6 µg/mL

Q: And the “HIV-2 (ROD) SI” value [2]?
A: <1

Q: And the CC50 [3]?
A: 7.6 µg/mL (≈ 28.9 µM)

Q: What about the melting point of the same molecule?
A: 159 °C

Q: What does the source list for `Cc1ncn(Nc2cccc(Cl)c2)c1-c1cccc(C#N)c1` [Compound 13.15, 1-(3-Chlorphenylamino)-5-(3-cyanophenyl)-4-methyl-1H-imidazole]?
A: HIV-1 (NL4.3 WT) IC50 [1]: 3.4 µg/mL; HIV-1 (NL4.3 WT) SI [1]: 3.2; HIV-2 (ROD) IC50 [2]: >10.9 µg/mL; HIV-2 (ROD) SI [2]: <1; cytotoxicity CC50 [4]: 10.9 µg/mL
